In patent US20240109905A1, “4-ALKOXY-6-OXO-PYRIDAZINE DERIVATIVES MODULATING NLRP3” (JANSSEN PHARMACEUTICA NV, priority 2021, published 2024):
Where two headings read alike, the source gives them in different places.

Key:
[1] = system: IL-1β; assay: PBMC assay: IL-1β release after LPS stimulation; assay type: cell-based; conditions: human PBMCs, 30 min compound, 100 ng/ml LPS for 6 hrs, MSD, read-out: IL1β AC50
Experimental: The activity of a compound according to the present invention can be assessed by in vitro methods.
(§1) Peripheral venous blood was collected from healthy individuals and human peripheral blood mononuclear cells (PBMCs) were isolated from blood by Ficoll-Histopaque (Sigma-Aldrich, A0561) density gradient centrifugation. After isolation, PBMCs were stored in liquid nitrogen for later use. Upon thawing, PBMC cell viability was determined in growth medium (RPMI media supplemented with 10% fetal bovine serum, 1% Pen-Strep and 1% L-glutamine). Compounds were spotted in a 1:3 serial dilution in DMSO and diluted to the final concentration in 30 μl medium in 96 well plates (Falcon, 353072). PBMCs were added at a density of 7.5×10^4 cells per well and incubated for 30 min in a 5% CO2 incubator at 37° C. LPS stimulation was performed by addition of 100 ng/ml LPS (final concentration, Invivogen, tlrl-smlps) for 6 hrs followed by collection of cellular supernatant and the analysis of IL-1β (μM) and TNF cytokines levels (μM) via MSD technology according to manufacturers' guidelines (MSD, K151A0H).
(§2) IC50 and AC50 values (for […]) and EC50 and AC50 values (TNF) were obtained on compounds of the invention/examples, and the AC50 values are depicted in the following table: […]

[2] = system: TNF; assay: PBMC assay: TNF cytokine level after LPS stimulation; assay type: cell-based; conditions: human PBMCs, 30 min compound, 100 ng/ml LPS for 6 hrs, MSD
Experimental: as §1, §2

## CC(C)c1nn(CC(=O)Nc2ccc3nncn3n2)c(=O)c(Cl)c1OCC(F)(F)F [Compound 72]
[1]; PBMC
  AC50: 0.27 µM
[2]; PBMC
  AC50: 16.6 µM

## CC(C)c1nn(CC(=O)Nc2ccc3nncn3c2)c(=O)cc1OC1CCNC1 (stereo not shown) [Compound 159]
[1]; PBMC
  AC50: > 20 µM
[2]; PBMC
  AC50: > 20 µM

## CCCOc1cc(=O)n(CC(=O)Nc2ccc3nncn3c2)nc1C(C)C [Compound 24F]
[1]; PBMC
  AC50: 0.19 µM
[2]; PBMC
  AC50: > 10 µM

## CC(C)c1nn(CC(=O)Nc2ccc3nncn3n2)c(=O)cc1OCC1CC1 [Compound 51]
[1]; PBMC
  AC50: 0.09 µM
[2]; PBMC
  AC50: > 20 µM

## Cc1c(OCc2ccccc2)c(C(C)C)nn(CC(=O)Nc2ccc3nncn3c2)c1=O [Compound 152]
[1]; PBMC
  AC50: > 20 µM
[2]; PBMC
  AC50: > 20 µM

## CC(C)c1nn(CC(=O)Nc2ccc3nncn3c2)c(=O)cc1OCC(F)F [Compound 17F]
[1]; PBMC
  AC50: 0.69 µM
[2]; PBMC
  AC50: > 10 µM

## O=C(Cn1nc(OCC(F)(F)F)c(OCC(F)(F)F)cc1=O)Nc1ccc2nncn2c1 [Compound 156]
[1]; PBMC
  AC50: > 20 µM
[2]; PBMC
  AC50: > 20 µM

## Cc1nccc(NC(=O)Cn2nc(C(C)C)c(OCC(C)C)cc2=O)c1F [Compound 63]
[1]; PBMC
  AC50: 0.19 µM
[2]; PBMC
  AC50: > 20 µM

## Cc1ccn2nc(NC(=O)Cn3nc(C(C)C)c(OCC(C)C)cc3=O)nc2c1 [Compound 91]
[1]; PBMC
  AC50: 0.69 µM
[2]; PBMC
  AC50: > 20 µM

## CC(C)COc1cc(=O)n(CC(=O)NC23CCC(NC(=O)OC(C)(C)C)(C2)C3)nc1C(C)C [Compound 115]
[1]; PBMC
  AC50: 1.88 µM
[2]; PBMC
  AC50: > 20 µM

## CC(C)c1nn(CC(=O)Nc2ccc3nncn3c2)c(=O)cc1OCC1CN(C(=O)OC(C)(C)C)C1 [Compound 2F]
[1]; PBMC
  AC50: > 15 µM
[2]; PBMC
  AC50: > 10 µM

## CC(C)COc1cc(=O)n(CC(=O)Nc2ccc3nncn3c2)nc1N(C)C [Compound 70]
[1]; PBMC
  AC50: 0.26 µM
[2]; PBMC
  AC50: > 20 µM

## CC(C)COc1cc(=O)n(CC(=O)Nc2nc3ccc(Cl)cn3n2)nc1C(C)C [Compound 129]
[1]; PBMC
  AC50: 4.7 µM
[2]; PBMC
  AC50: > 20 µM

## CC(C)COc1cc(=O)n(CC(=O)NC2(CC(=O)O)CCCC2)nc1C(C)C [Compound 96]
[1]
  AC50: 0.87 µM
[2]
  AC50: > 20 µM

## CC(C)COc1cc(=O)n(CC(=O)NC23CC(N4CCCCC4)(C2)C3)nc1C(C)C [Compound 121]
[1]; PBMC
  AC50: 2.71 µM
[2]; PBMC
  AC50: > 20 µM

## COC(=O)CC12CC(NC(=O)Cn3nc(C(C)C)c(OCC(C)C)cc3=O)(C1)C2 [Compound 71, methyl 2-(3-(2-(4-isobutoxy-3-isopropyl-6-oxopyridazin-1(6H)-yl)acetamido)bicyclo[1.1.1]pentan-1-yl)acetate]
[1]; PBMC
  AC50: 0.26 µM
[2]; PBMC
  AC50: > 20 µM

## Cc1c(OCC(C)C)c(C(C)C)nn(CC(=O)Nc2ccc3nncn3n2)c1=O [Compound 42]
[1]; PBMC
  AC50: 0.05 µM
[2]; PBMC
  AC50: 9.41 µM

## CC(C)COc1cc(=O)n(CC(=O)NC23CC(C4=NN(C)C(=O)C4)(C2)C3)nc1C(C)C [Compound 98, 2-(4-isobutoxy-3-isopropyl-6-oxopyridazin-1(6H)-yl)-N-(3-(1-methyl-5-oxo-4,5-dihydro-1H-pyrazol-3-yl)bicyclo[1.1.1]pentan-1-yl)acetamide]
[1]; PBMC
  AC50: 0.96 µM
[2]; PBMC
  AC50: > 20 µM

## COC(=O)C12CCC(NC(=O)Cn3nc(C(C)C)c(OCC(C)C)cc3=O)(CC1)CC2 [Compound 45]
[1]; PBMC
  AC50: 0.07 µM
[2]; PBMC
  AC50: > 20 µM

## CC(C)COc1cc(=O)n(CC(=O)Nc2nc3ccc(C#N)cc3o2)nc1C(C)C [Compound 137]
[1]; PBMC
  AC50: 10.2 µM
[2]; PBMC
  AC50: > 20 µM

## CC(C)COc1cc(=O)n(CC(=O)Nc2cn3cccnc3n2)nc1C(C)C [Compound 100]
[1]; PBMC
  AC50: 1 µM
[2]; PBMC
  AC50: 4.81 µM

## CC(C)c1nn(CC(=O)Nc2ccc3nncn3c2)c(=O)c(Cl)c1OCC(F)(F)F [Compound 114]
[1]; PBMC
  AC50: 1.85 µM
[2]; PBMC
  AC50: > 20 µM

## O=C(Cn1nc(C2CC2)c(OC2CCOCC2)cc1=O)Nc1ccc2nncn2c1 [Compound 30G]
[1]; PBMC
  AC50: 14.6 µM
[2]; PBMC
  AC50: > 10 µM

## CC(C)c1nn(CC(=O)Nc2ccc3nncn3n2)c(=O)c(Cl)c1OCC(C)(F)F [Compound 46]
[1]; PBMC
  AC50: 0.08 µM
[2]; PBMC
  AC50: 8.17 µM

## COC(=O)C12CC(NC(=O)Cn3nc(C(C)C)c(OCC(C)C)cc3=O)(C1)C2 [Compound 36, methyl 3-(2-(4-isobutoxy-3-isopropyl-6-oxopyridazin-1(6H)-yl)acetamido)bicyclo[1.1.1]pentane-1-carboxylate]
[1]; PBMC
  AC50: 0.01 µM
[2]; PBMC
  AC50: 3.81 µM

## CC(C)COc1cc(=O)n(CC(=O)Nc2nc3ccc(C#N)cc3n2C)nc1C(C)C [Compound 146]
[1]; PBMC
  AC50: > 20 µM
[2]; PBMC
  AC50: > 20 µM

## CC(C)COc1c(C(C)C)nn(CC(=O)Nc2ccc3nncn3c2)c(=O)c1C(F)F [Compound 118]
[1]; PBMC
  AC50: 2.3 µM
[2]; PBMC
  AC50: > 20 µM

## CC(C)COc1cc(=O)n(CC(=O)NC23CC(S(=O)(=O)C4CC4)(C2)C3)nc1C(C)C [Compound 116]
[1]; PBMC
  AC50: 1.91 µM
[2]; PBMC
  AC50: > 20 µM

## Cc1c(OCC(C)C)c(C(C)C)nn(CC(=O)Nc2ccc3nncn3c2)c1=O [Compound 54, N-([1,2,4]triazolo[4,3-a]pyridin-6-yl)-2-(4-isobutoxy-3-isopropyl-5-methyl-6-oxopyridazin-1(6H)-yl)acetamide]
[1]; PBMC
  AC50: 0.1 µM
[2]; PBMC
  AC50: 15.6 µM

## CC(C)c1nn(CC(=O)Nc2ccc3nncn3c2)c(=O)cc1OCC1CC1 [Compound 22F]
[1]; PBMC
  AC50: 0.11 µM
[2]; PBMC
  AC50: > 10 µM

## CC(C)COc1cc(=O)n(CC(=O)Nc2ccncc2F)nc1C(C)C [Compound 52]
[1]; PBMC
  AC50: 0.09 µM
[2]; PBMC
  AC50: > 20 µM

## COc1ccn2nc(NC(=O)Cn3nc(C(C)C)c(OCC(C)C)cc3=O)nc2c1 [Compound 80]
[1]
  AC50: 0.45 µM
[2]
  AC50: > 20 µM

## CC(Oc1cc(=O)n(CC(=O)Nc2ccc3nncn3c2)nc1C(C)C)C(=O)N(C)C (stereo not shown) [Compound 4F]
[1]; PBMC
  AC50: > 15 µM
[2]; PBMC
  AC50: > 10 µM

## CC(C)COc1cc(=O)n(CC(=O)NC23C4C5C2C2C3C4C52C(=O)O)nc1C(C)C (stereo not shown) [Compound 125]
[1]; PBMC
  AC50: 3.41 µM
[2]; PBMC
  AC50: > 20 µM

## CC(C)COc1c(C(C)C)nn(CC(=O)Nc2ccc3nncn3c2)c(=O)c1C(F)(F)F [Compound 163]
[1]; PBMC
  AC50: > 20 µM
[2]; PBMC
  AC50: > 20 µM

## CC(C)COc1cc(=O)n(CC(=O)NC23CC(NC(=O)OC(C)(C)C)(C2)C3)nc1C(C)C [Compound 132]
[1]; PBMC
  AC50: 9.79 µM
[2]; PBMC
  AC50: > 20 µM

## CCCOc1c(C(C)C)nn(CC(=O)Nc2ccc3nncn3n2)c(=O)c1Cl [Compound 48]
[1]; PBMC
  AC50: 0.09 µM
[2]; PBMC
  AC50: 4.98 µM

## CC(C)c1nn(CC(=O)Nc2ccc3nncn3c2)c(=O)cc1OC1CCN(C(=O)OC(C)(C)C)C1 (stereo not shown) [Compound 1F, tert-butyl 3-((1-(2-([1,2,4]triazolo[4,3-a]pyridin-6-ylamino)-2-oxoethyl)-3-isopropyl-6-oxo-1,6-dihydropyridazin-4-yl)oxy)pyrrolidine-1-carboxylate]
[1]; PBMC
  AC50: > 15 µM
[2]; PBMC
  AC50: > 10 µM

## CC(C)COc1cc(=O)n(CC(=O)N[C@]23CC[C@@](NC(=O)OC(C)(C)C)(CC2)C3)nc1C(C)C [Compound 122, tert-butyl ((1r,4r)-4-(2-(4-isobutoxy-3-isopropyl-6-oxopyridazin-1(6H)-yl)acetamido)bicyclo[2.2.1]heptan-1-yl)carbamate]
[1]; PBMC
  AC50: 2.81 µM
[2]; PBMC
  AC50: > 20 µM

## CC(C)c1nn(CC(=O)Nc2ccc3nncn3c2)c(=O)cc1OCC1CS(=O)(=O)C1 [Compound 6F]
[1]; PBMC
  AC50: > 15 µM
[2]; PBMC
  AC50: > 10 µM

## CC(C)COc1cc(=O)n(CC(=O)Nc2ccc3nncn3n2)nc1C(C)C [Compound 41]
[1]; PBMC
  AC50: 0.04 µM
[2]; PBMC
  AC50: > 20 µM

## CC(C)COc1cc(=O)n(CC(=O)Nc2nc3ccc(Cl)cc3n2C)nc1C(C)C [Compound 134]
[1]; PBMC
  AC50: > 10 µM
[2]; PBMC
  AC50: > 10 µM

## CC(C)COc1cc(=O)n(CC(=O)Nc2nc3cc(Br)ccc3n2C)nc1C(C)C [Compound 151]
[1]; PBMC
  AC50: > 20 µM
[2]; PBMC
  AC50: > 20 µM

## CC(C)c1nn(CC(=O)Nc2ccc3nncn3c2)c(=O)cc1OCC(F)(F)F [Compound 23F]
[1]; PBMC
  AC50: 0.16 µM
[2]; PBMC
  AC50: > 10 µM

## Cc1ccn2nc(NC(=O)Cn3nc(C(C)C)c(OCC(C)C)cc3=O)cc2n1 [Compound 120]
[1]; PBMC
  AC50: 2.66 µM
[2]; PBMC
  AC50: > 20 µM

## CC(C)c1nn(CC(=O)Nc2ccc3nncn3c2)c(=O)cc1OCC1CC1(F)F (stereo not shown) [Compound 21F]
[1]; PBMC
  AC50: 0.65 µM
[2]; PBMC
  AC50: > 10 µM

## CC(C)c1nn(CC(=O)Nc2ccc3nncn3c2)c(=O)cc1OC1CN(C(=O)OC(C)(C)C)C1 [Compound 3F]
[1]; PBMC
  AC50: > 15 µM
[2]; PBMC
  AC50: > 10 µM

## CC(C)COc1cc(=O)n(CC(=O)Nc2nc3cc(C#N)ccc3n2C)nc1C(C)C [Compound 148]
[1]; PBMC
  AC50: > 20 µM
[2]; PBMC
  AC50: > 20 µM

## CC(C)COc1cc(=O)n(CC(=O)Nc2nc3ccccn3n2)nc1C(C)C [Compound 53]
[1]; PBMC
  AC50: 0.1 µM
[2]; PBMC
  AC50: > 20 µM

## CCC(C)Oc1cc(=O)n(CC(=O)Nc2ccc3nncn3c2)nc1C(C)C (stereo not shown) [Compound 9F]
[1]; PBMC
  AC50: 0.56 µM
[2]; PBMC
  AC50: > 10 µM

## CC(C)c1nn(CC(=O)Nc2ccc3nncn3n2)c(=O)cc1OCC1(F)CC1 [Compound 57]
[1]; PBMC
  AC50: 0.14 µM
[2]; PBMC
  AC50: > 20 µM

## CC(C)COc1cc(=O)n(CC(=O)Nc2nc3ccc(F)cn3n2)nc1C(C)C [Compound 69]
[1]; PBMC
  AC50: 0.25 µM
[2]; PBMC
  AC50: > 20 µM

## CC(C)COc1cc(=O)n(CC(=O)NC23CC(CO)(C2)C3)nc1C(C)C [Compound 79]
[1]; PBMC
  AC50: 0.43 µM
[2]; PBMC
  AC50: > 20 µM
